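Following 48 hours of exposure in 96-well plates, responses at five concentrations were used to interpolate endpoints linearly. The concentration for 50% growth inhibition is given as GI50.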 Activity calls are given as the source filed them. Rule as the data show it: active = GI50 up to about 1.1 µM and inactive = higher.
Key:
Test in all cases: inhibition of tumour cell growth, NCI panel, 48 h
[1] = tested on: SF-268
[2] = tested on: UO-31
[3] = tested on: SK-MEL-2
[4] = tested on: NCI-H226
[5] = tested on: SF-539
[6] = tested on: Malme-3M
[7] = tested on: SK-MEL-28
[8] = tested on: DLD-1
[9] = tested on: NCI/ADR-RES
[10] = tested on: HOP-18
[11] = tested on: SNB-78
[12] = tested on: HL-60
[13] = tested on: KM12
[14] = tested on: HCT-15
[15] = tested on: NCI-H23
[16] = tested on: DMS-273
[17] = tested on: LXFL 529

CC1(C)CC23C4COC(=O)C2CCC1C3CC4=O (stereo unspecified)
GI50 [1]: 10.6 µM (inactive) | GI50 [2]: 28.6 µM (inactive) | GI50 [3]: 14.5 µM (inactive) | GI50 [4]: 6.59 µM (inactive) | GI50 [5]: 19.5 µM (inactive) | GI50 [6]: 7.21 µM (inactive) | GI50 [7]: 6.12 µM (inactive) | GI50 [8]: 11.2 µM (inactive) | GI50 [9]: 7.21 µM (inactive) | GI50 [10]: 1.72 µM (inactive) | GI50 [11]: 15 µM (inactive) | GI50 [12]: 3.06 µM (inactive) | GI50 [13]: 12.6 µM (inactive) | GI50 [14]: 6.52 µM | GI50 [15]: 3.27 µM (inactive) | GI50 [16]: 19.9 µM (inactive)

CCCCSCC(NC(=O)/C=C/c1c(C)[nH]c(=O)[nH]c1=O)C(=O)OC (stereo unspecified)
GI50 [1]: 23 µM (inactive) | GI50 [2]: 49.4 µM (inactive) | GI50 [3]: 25.2 µM (inactive) | GI50 [4]: 43.9 µM (inactive) | GI50 [5]: 61.2 µM (inactive) | GI50 [6]: 15.7 µM (inactive) | GI50 [7]: 75 µM (inactive) | GI50 [8]: 54.8 µM (inactive) | GI50 [9]: 358 µM (inactive) | GI50 [10]: 61.2 µM (inactive) | GI50 [11]: 47 µM (inactive) | GI50 [12]: 76.6 µM (inactive) | GI50 [13]: 24.9 µM (inactive) | GI50 [14]: 148 µM | GI50 [15]: 90.8 µM (inactive) | GI50 [16]: 88.3 µM (inactive)

CCCCc1ccc(-n2c3nc(=O)n(C)c(=O)c-3nc3ccccc32)cc1
GI50 [1]: 10.1 µM (inactive) | GI50 [2]: 12.5 µM (inactive) | GI50 [3]: 10.9 µM (inactive) | GI50 [4]: 11.7 µM (inactive) | GI50 [5]: 14.1 µM (inactive) | GI50 [6]: 7.6 µM (inactive) | GI50 [10]: 10.8 µM (inactive) | GI50 [11]: 16.3 µM (inactive) | GI50 [12]: 10.6 µM (inactive) | GI50 [17]: 15.6 µM (inactive) | GI50 [13]: 11.2 µM (inactive) | GI50 [14]: 6.35 µM | GI50 [15]: 2.37 µM (inactive) | GI50 [16]: 10.3 µM (inactive)

O=NN(CCF)C(=O)NC1CCSCC1
GI50 [1]: > 100 µM (inactive) | GI50 [2]: > 100 µM (inactive) | GI50 [3]: > 100 µM (inactive) | GI50 [5]: > 100 µM (inactive) | GI50 [6]: > 100 µM (inactive) | GI50 [7]: > 100 µM (inactive) | GI50 [8]: > 100 µM (inactive) | GI50 [9]: > 100 µM (inactive) | GI50 [10]: > 100 µM (inactive) | GI50 [11]: > 100 µM (inactive) | GI50 [12]: > 100 µM (inactive) | GI50 [13]: > 100 µM (inactive) | GI50 [14]: > 100 µM | GI50 [15]: > 100 µM (inactive) | GI50 [16]: > 100 µM (inactive)

Cn1cnc([N+](=O)[O-])c1Sc1nc2cc([N+](=O)[O-])ccc2[nH]1
GI50 [1]: 19.9 µM (inactive) | GI50 [2]: 19.1 µM (inactive) | GI50 [4]: 40.2 µM (inactive) | GI50 [5]: 19.1 µM (inactive) | GI50 [6]: > 10 µM (inactive) | GI50 [7]: 15.3 µM (inactive) | GI50 [8]: 11.5 µM (inactive) | GI50 [10]: 45.8 µM (inactive) | GI50 [11]: 24.1 µM (inactive) | GI50 [12]: 14 µM (inactive) | GI50 [17]: 12.6 µM (inactive) | GI50 [13]: 34.9 µM (inactive) | GI50 [14]: 13.5 µM | GI50 [15]: 23.8 µM (inactive) | GI50 [16]: 1.73 µM (inactive)

CCCCC1=CSC(c2ccccc2)=C(c2ccccc2)S1
GI50 [2]: > 100 µM (inactive) | GI50 [4]: > 100 µM (inactive) | GI50 [5]: > 100 µM (inactive) | GI50 [7]: 63.5 µM (inactive) | GI50 [8]: 82.6 µM (inactive) | GI50 [10]: > 100 µM (inactive) | GI50 [11]: > 100 µM (inactive) | GI50 [17]: 8.28 µM (inactive) | GI50 [13]: 42.3 µM (inactive) | GI50 [14]: 26.2 µM | GI50 [15]: 36.1 µM (inactive) | GI50 [16]: 26.7 µM (inactive)

C=C/C=C/NC(=O)OCc1ccccc1
GI50 [1]: > 100 µM (inactive) | GI50 [2]: > 100 µM (inactive) | GI50 [3]: > 100 µM (inactive) | GI50 [7]: > 100 µM (inactive) | GI50 [8]: > 100 µM (inactive) | GI50 [10]: > 100 µM (inactive) | GI50 [11]: > 100 µM (inactive) | GI50 [12]: > 100 µM (inactive) | GI50 [17]: > 100 µM (inactive) | GI50 [13]: > 100 µM (inactive) | GI50 [16]: > 100 µM (inactive)

N#CNC1=NC(CCCC(=O)Nc2cccc([N+](=O)[O-])c2)=C(c2nc3ccccc3[nH]2)C(N)N1 (stereo unspecified)
GI50 [1]: > 100 µM (inactive) | GI50 [2]: > 100 µM (inactive) | GI50 [3]: > 100 µM (inactive) | GI50 [4]: > 100 µM (inactive) | GI50 [5]: > 100 µM (inactive) | GI50 [6]: > 100 µM (inactive) | GI50 [7]: > 100 µM (inactive) | GI50 [8]: > 100 µM (inactive) | GI50 [10]: 64.9 µM (inactive) | GI50 [12]: > 100 µM (inactive) | GI50 [17]: > 100 µM (inactive) | GI50 [13]: > 100 µM (inactive) | GI50 [14]: 76.7 µM | GI50 [15]: > 100 µM (inactive) | GI50 [16]: > 100 µM (inactive)

N=S(c1ccccc1[N+](=O)[O-])c1ccccc1[N+](=O)[O-]
GI50 [1]: 2.37 µM (inactive) | GI50 [2]: 3.08 µM (inactive) | GI50 [3]: 4.84 µM (inactive) | GI50 [4]: 5.6 µM (inactive) | GI50 [5]: 4.58 µM (inactive) | GI50 [6]: 3.26 µM (inactive) | GI50 [7]: 3.7 µM (inactive) | GI50 [10]: 5.3 µM (inactive) | GI50 [11]: 2.52 µM (inactive) | GI50 [17]: 2.22 µM (inactive) | GI50 [13]: 6.65 µM (inactive) | GI50 [14]: 1.62 µM | GI50 [15]: 5.26 µM (inactive) | GI50 [16]: 3.05 µM (inactive)

CC(C(=O)C(C)O[Si](c1ccccc1)(c1ccccc1)C(C)(C)C)=P(c1ccccc1)(c1ccccc1)c1ccccc1 (stereo unspecified)
GI50 [2]: 5.28 µM (inactive) | GI50 [3]: 2.5 µM (inactive) | GI50 [4]: 3.3 µM (inactive) | GI50 [5]: 3.89 µM (inactive) | GI50 [6]: 3.13 µM (inactive) | GI50 [8]: 4.58 µM (inactive) | GI50 [10]: 3.05 µM (inactive) | GI50 [11]: 3.48 µM (inactive) | GI50 [12]: 1.91 µM (inactive) | GI50 [17]: 3.3 µM (inactive) | GI50 [13]: 3.61 µM (inactive) | GI50 [14]: 5.64 µM | GI50 [15]: 3.23 µM (inactive)

CCC(C(C)N1CC(=O)NC(=O)C1)N1CC(=O)NC(=O)C1 (stereo unspecified)
GI50 [1]: > 87.9 µM (inactive) | GI50 [2]: > 37.5 µM (inactive) | GI50 [3]: > 100 µM (inactive) | GI50 [4]: 16.1 µM (inactive) | GI50 [5]: > 39.7 µM (inactive) | GI50 [6]: 13.4 µM (inactive) | GI50 [7]: > 100 µM (inactive) | GI50 [8]: > 31.3 µM (inactive) | GI50 [9]: 44.8 µM (inactive) | GI50 [10]: > 100 µM (inactive) | GI50 [11]: > 66.4 µM (inactive) | GI50 [12]: 2.06 µM (inactive) | GI50 [13]: > 100 µM (inactive) | GI50 [14]: > 49.7 µM | GI50 [15]: 29 µM (inactive) | GI50 [16]: 12.3 µM (inactive)

O=C(O)C1Cc2c([nH]c3ccccc23)C=N1 (stereo unspecified)
GI50 [1]: > 100 µM (inactive) | GI50 [2]: > 100 µM (inactive) | GI50 [3]: > 100 µM (inactive) | GI50 [5]: > 100 µM (inactive) | GI50 [6]: > 100 µM (inactive) | GI50 [7]: > 100 µM (inactive) | GI50 [8]: > 100 µM (inactive) | GI50 [9]: > 100 µM (inactive) | GI50 [10]: 30.3 µM (inactive) | GI50 [11]: > 100 µM (inactive) | GI50 [12]: > 100 µM (inactive) | GI50 [14]: > 100 µM | GI50 [15]: > 100 µM (inactive) | GI50 [16]: > 100 µM (inactive)

Cc1ccc(C2=C(c3ccccc3)C(Br)(c3ccc(C)cc3)C(c3ccccc3)=C2c2ccc(C)cc2)cc1
GI50 [1]: > 100 µM (inactive) | GI50 [3]: > 100 µM (inactive) | GI50 [5]: > 100 µM (inactive) | GI50 [6]: > 100 µM (inactive) | GI50 [7]: > 100 µM (inactive) | GI50 [8]: > 100 µM (inactive) | GI50 [10]: 2.09 µM (inactive) | GI50 [11]: > 100 µM (inactive) | GI50 [12]: > 100 µM (inactive) | GI50 [17]: > 100 µM (inactive) | GI50 [13]: > 100 µM (inactive) | GI50 [14]: > 100 µM | GI50 [15]: > 100 µM (inactive) | GI50 [16]: > 100 µM (inactive)

CC1C=CC(=O)C(n2cc(F)c(=O)[nH]c2=O)O1 (stereo unspecified)
GI50 [2]: 16.4 µM (inactive) | GI50 [5]: 17.2 µM (inactive) | GI50 [6]: 14.2 µM (inactive) | GI50 [7]: 23.4 µM (inactive) | GI50 [8]: 18.6 µM (inactive) | GI50 [10]: 10.8 µM (inactive) | GI50 [11]: 28.2 µM (inactive) | GI50 [12]: 20.1 µM (inactive) | GI50 [14]: 16.6 µM | GI50 [15]: 18.1 µM (inactive) | GI50 [16]: 21.4 µM (inactive)

Reference: ChEMBL document CHEMBL1201862, “PubChem BioAssay data set” (2004)
